Measured values as given in ChEMBL document CHEMBL1649576, “Emergence of extended-spectrum beta-lactamase PER-1 in Proteus vulgaris and Providencia stuartii isolates from Algiers, Algeria” (2009).
Values after ≈ are worked out from the molar mass of the structure shown.

Columns and labels:
Type in all cases: functional
Proteus vulgaris [1] = assay: Antimicrobial activity against Proteus vulgaris Pv9 expressing beta-lactamase PER-1 by Etest
Proteus vulgaris [2] = assay: Antimicrobial activity against Proteus vulgaris Pv5 expressing beta-lactamase PER-1 by […]
Proteus vulgaris [3] = assay: Antimicrobial activity against Proteus vulgaris Pv5 expressing beta-lactamase PER-1 by Etest
Escherichia coli [4] = assay: Antimicrobial activity against rifampin-resistant Escherichia coli J53 transconjugated with Proteus vulgaris Pv5 expressing beta-lactamase PER-1 by […]
Proteus vulgaris [5] = assay: Antimicrobial activity against Proteus vulgaris Pv7 expressing beta-lactamase PER-1 by Etest
Escherichia coli [6] = assay: Antimicrobial activity against rifampin-resistant Escherichia coli J53 transconjugated with Proteus vulgaris Pv8 expressing beta-lactamase PER-1 by Etest
Proteus vulgaris [7] = assay: Antimicrobial activity against Proteus vulgaris Pv9 expressing beta-lactamase PER-1 by […]
Escherichia coli [8] = assay: Antimicrobial activity against rifampin-resistant Escherichia coli J53 transconjugated with Proteus vulgaris Pv8 expressing beta-lactamase PER-1 by […]
Escherichia coli [9] = assay: Antimicrobial activity against rifampin-resistant Escherichia coli J53 transconjugated with Proteus vulgaris Pv9 expressing beta-lactamase PER-1 by […]
Proteus vulgaris [10] = assay: Antimicrobial activity against Proteus vulgaris Pv7 expressing beta-lactamase PER-1 by […]
Escherichia coli [11] = assay: Antimicrobial activity against rifampin-resistant Escherichia coli J53 transconjugated with Proteus vulgaris Pv5 expressing beta-lactamase PER-1 by Etest
Providencia stuartii [12] = assay: Antimicrobial activity against Providencia stuartii Ps5 expressing beta-lactamase PER-1 by […]
Escherichia coli [13] = assay: Antimicrobial activity against rifampin-resistant Escherichia coli J53 transconjugated with Proteus vulgaris Pv9 expressing beta-lactamase PER-1 by Etest
Proteus vulgaris [14] = assay: Antimicrobial activity against Proteus vulgaris Pv8 expressing beta-lactamase PER-1 by […]
Providencia stuartii [15] = assay: Antimicrobial activity against Providencia stuartii Ps5 expressing beta-lactamase PER-1 by Etest
Proteus vulgaris [16] = assay: Antimicrobial activity against Proteus vulgaris Pv8 expressing beta-lactamase PER-1 by Etest
Escherichia coli [17] = assay: Antimicrobial activity against rifampin-resistant Escherichia coli J53 transconjugated with Providencia stuartii Ps5 expressing beta-lactamase PER-1 by […]
Escherichia coli [18] = assay: Antimicrobial activity against rifampin-resistant Escherichia coli J53 transconjugated with Proteus vulgaris Pv7 expressing beta-lactamase PER-1 by Etest
Escherichia coli [19] = assay: Antimicrobial activity against rifampin-resistant Escherichia coli J53 transconjugated with Proteus vulgaris Pv7 expressing beta-lactamase PER-1 by […]
Escherichia coli [20] = assay: Antimicrobial activity against rifampin-resistant Escherichia coli J53 transconjugated with Providencia stuartii Ps5 expressing beta-lactamase PER-1 by Etest

SMILES	MIC (Proteus vulgaris [1]) [mg/L]	MIC (Proteus vulgaris [2]) [mg/L]	MIC (Proteus vulgaris [3]) [mg/L]	MIC (Escherichia coli [4]) [mg/L]	MIC (Proteus vulgaris [5]) [mg/L]	MIC (Escherichia coli [6]) [mg/L]	MIC (Proteus vulgaris [7]) [mg/L]	MIC (Escherichia coli [8]) [mg/L]	MIC (Escherichia coli [9]) [mg/L]	MIC (Proteus vulgaris [10]) [mg/L]	MIC (Escherichia coli [11]) [mg/L]	MIC (Providencia stuartii [12]) [mg/L]	MIC (Escherichia coli [13]) [mg/L]	MIC (Proteus vulgaris [14]) [mg/L]	MIC (Providencia stuartii [15]) [mg/L]	MIC (Proteus vulgaris [16]) [mg/L]	MIC (Escherichia coli [17]) [mg/L]	MIC (Escherichia coli [18]) [mg/L]	MIC (Escherichia coli [19]) [mg/L]	MIC (Escherichia coli [20]) [mg/L]
CO/N=C(\C(=O)N[C@@H]1C(=O)N2C(C(=O)[O-])=C(C[N+]3(C)CCCC3)CS[C@H]12)c1csc(N)n1 [CEFEPIME]	8 (≈ 16.6 µM)	32 (≈ 66.6 µM)	32 (≈ 66.6 µM)	16 (≈ 33.3 µM)	16 (≈ 33.3 µM)	8 (≈ 16.6 µM)	8 (≈ 16.6 µM)	8 (≈ 16.6 µM)	8 (≈ 16.6 µM)	16 (≈ 33.3 µM)	16 (≈ 33.3 µM)	8 (≈ 16.6 µM)	8 (≈ 16.6 µM)	32 (≈ 66.6 µM)	8 (≈ 16.6 µM)	32 (≈ 66.6 µM)				
CO/N=C(\C(=O)N[C@@H]1C(=O)N2C(C(=O)O)=C(COC(C)=O)CS[C@H]12)c1csc(N)n1 [CEFOTAXIME]	32 (≈ 70.3 µM)	32 (≈ 70.3 µM)	32 (≈ 70.3 µM)	32 (≈ 70.3 µM)	32 (≈ 70.3 µM)	16 (≈ 35.1 µM)	32 (≈ 70.3 µM)	16 (≈ 35.1 µM)	32 (≈ 70.3 µM)	32 (≈ 70.3 µM)	32 (≈ 70.3 µM)	32 (≈ 70.3 µM)	32 (≈ 70.3 µM)	32 (≈ 70.3 µM)	32 (≈ 70.3 µM)	32 (≈ 70.3 µM)	32 (≈ 70.3 µM)	31 (≈ 68.1 µM)	32 (≈ 70.3 µM)	32 (≈ 70.3 µM)
CC(C)(O/N=C(\C(=O)N[C@@H]1C(=O)N2C(C(=O)[O-])=C(C[n+]3ccccc3)CS[C@H]12)c1csc(N)n1)C(=O)O [CEFTAZIDIME]	> 256	> 256	> 256	> 256	> 256	> 256	> 256	> 256	> 256	> 256	> 256	> 256	> 256	> 256	> 256	> 256	> 256	> 256	> 256	> 256
C[C@@H](O)[C@H]1C(=O)N2C(C(=O)O)=C(SCCNC=N)C[C@H]12 [IMIPENEM ANHYDROUS]	1 (≈ 3.34 µM)	1 (≈ 3.34 µM)	1 (≈ 3.34 µM)	0.25 (≈ 0.835 µM)	1 (≈ 3.34 µM)	0.125 (≈ 0.418 µM)	1 (≈ 3.34 µM)	0.125 (≈ 0.418 µM)	0.25 (≈ 0.835 µM)	1 (≈ 3.34 µM)	0.25 (≈ 0.835 µM)	2 (≈ 6.68 µM)	0.25 (≈ 0.835 µM)	1 (≈ 3.34 µM)	2 (≈ 6.68 µM)	1 (≈ 3.34 µM)	0.125 (≈ 0.418 µM)	0.125 (≈ 0.418 µM)	0.125 (≈ 0.418 µM)	0.125 (≈ 0.418 µM)
CCN1CCN(C(=O)N[C@@H](C(=O)N[C@@H]2C(=O)N3[C@@H]2SC(C)(C)[C@@H]3C(=O)O)c2ccccc2)C(=O)C1=O [PIPERACILLIN]	32 (≈ 61.8 µM)	16 (≈ 30.9 µM)	16 (≈ 30.9 µM)	16 (≈ 30.9 µM)	32 (≈ 61.8 µM)	16 (≈ 30.9 µM)	32 (≈ 61.8 µM)	16 (≈ 30.9 µM)	32 (≈ 61.8 µM)	32 (≈ 61.8 µM)	16 (≈ 30.9 µM)	32 (≈ 61.8 µM)	32 (≈ 61.8 µM)	16 (≈ 30.9 µM)	32 (≈ 61.8 µM)	16 (≈ 30.9 µM)	32 (≈ 61.8 µM)	32 (≈ 61.8 µM)	32 (≈ 61.8 µM)	32 (≈ 61.8 µM)
